# Assay results taken from ChEMBL document CHEMBL5247627, “1-Methyl-3-((4-(quinolin-4-yloxy)phenyl)amino)-1H-pyrazole-4-carboxamide derivatives as new rearranged during Transfection (RET) kinase inhibitors capable of suppressing resistant mutants in solvent-front regions” (Eur J Med Chem, 2022).
# Calls of active or inactive are those of the source. The rule behind the calls is not given here.
# Experiments:
# [1] = test system: BaF3; assay: Induction of apoptosis in mouse BaF3 cells harbouring CCDC6-RET G810C assessed as late apoptotic cells measured at 100 nM for 48 hrs by Annexin V-FITC staining based Guava easyCyte flow cytometric analysis (reference value: 2.65 %); type: functional
# [2] = test system: BaF3; details: Mus musculus, CB17-SCID, Tumor/tissue, dose 10-30 mg/kg, route ip, time 13.0 day
# [3] = test system: BaF3; details: Mus musculus, dose 100.0 nM, time 4.0 hrs
# [4] = test system: BaF3; assay: Antiproliferative activity against mouse BaF3 cells expressing rearranged during transfection kinase V804L-G810C incubated for 74 to 76 hrs by cell counting kit 8 method
# [5] = molecular target: Proto-oncogene tyrosine-protein kinase receptor Ret/Coiled-coil domain-containing protein 6 (Mus musculus) (UniProt P35546+D3YZP9); assay: Inhibition of wild type rearranged during transfection kinase/CCDC6 phosphorylation in mouse BaF3 cells measured at 100 nM for 4 hrs by Western blot analysis; type: cell-based
# [6] = test system: BaF3; assay: Induction of apoptosis in mouse BaF3 cells harbouring CCDC6-RET G810R assessed as late apoptotic cells measured at 100 nM for 48 hrs by Annexin V-FITC staining based Guava easyCyte flow cytometric analysis (reference value: 3.4 %); type: functional
# [7] = test system: BaF3; assay: Antitumor activity against mouse BaF3 cells harbouring CCDC6-RET G810C cells xenografted in CB17-SCID mouse assessed as reduction in tumor growth administered intraperitoneally qd administered for 12 days measured every 2 days; type: functional, cell-based; details: dose 10-30 mg/kg, route ip, time 12.0 day
# [8] = test system: BaF3; assay: Induction of apoptosis in mouse BaF3 cells harbouring CCDC6-RET G810C assessed as viable cells measured at 100 nM for 48 hrs by Annexin V-FITC staining based Guava easyCyte flow cytometric analysis (reference value: 90.90 %); type: functional; details: read-out: Activity
# [9] = test system: BaF3; details: Mus musculus, dose <= 100.0 nM, time 4.0 hrs
# [10] = test system: BaF3; assay: Antiproliferative activity against mouse BaF3 cells expressing wildtype rearranged during transfection kinase-CCDC6 incubated for 74 to 76 hrs by cell counting kit 8 method
# [11] = test system: BaF3; assay: Induction of apoptosis in mouse BaF3 cells harbouring CCDC6-RET G810C assessed as late apoptotic cells measured at 300 nM for 48 hrs by Annexin V-FITC staining based Guava easyCyte flow cytometric analysis (reference value: 2.65 %); type: functional
# [12] = test system: BaF3; assay: Induction of apoptosis in mouse BaF3 cells harbouring CCDC6-RET G810R assessed as late apoptotic cells measured at 300 nM for 48 hrs by Annexin V-FITC staining based Guava easyCyte flow cytometric analysis (reference value: 3.4 %); type: functional
# [13] = test system: BaF3; assay: Induction of apoptosis in mouse BaF3 cells harbouring CCDC6-RET G810R assessed as late apoptotic cells measured at 33.3 nM for 48 hrs by Annexin V-FITC staining based Guava easyCyte flow cytometric analysis (reference value: 3.4 %); type: functional
# [14] = test system: BaF3; assay: Induction of apoptosis in mouse BaF3 cells harbouring CCDC6-RET G810C assessed as early apoptotic cells measured at 100 nM for 48 hrs by Annexin V-FITC staining based Guava easyCyte flow cytometric analysis (reference value: 6.10 %); type: functional
# [15] = test system: BaF3; assay: Induction of apoptosis in mouse BaF3 cells harbouring CCDC6-RET G810R assessed as early apoptotic cells measured at 300 nM for 48 hrs by Annexin V-FITC staining based Guava easyCyte flow cytometric analysis (reference value: 6.46 %); type: functional
# [16] = test system: BaF3; assay: Induction of apoptosis in mouse BaF3 cells harbouring CCDC6-RET G810R assessed as necrotic cells measured at 100 nM for 48 hrs by Annexin V-FITC staining based Guava easyCyte flow cytometric analysis (reference value: 0.64 %); type: functional
# Proto-oncogene tyrosine-protein kinase receptor Ret/Coiled-coil domain-containing protein 6 (Mus musculus), sequence (D3YZP9 whole entry, looked up, the tested form may be a part): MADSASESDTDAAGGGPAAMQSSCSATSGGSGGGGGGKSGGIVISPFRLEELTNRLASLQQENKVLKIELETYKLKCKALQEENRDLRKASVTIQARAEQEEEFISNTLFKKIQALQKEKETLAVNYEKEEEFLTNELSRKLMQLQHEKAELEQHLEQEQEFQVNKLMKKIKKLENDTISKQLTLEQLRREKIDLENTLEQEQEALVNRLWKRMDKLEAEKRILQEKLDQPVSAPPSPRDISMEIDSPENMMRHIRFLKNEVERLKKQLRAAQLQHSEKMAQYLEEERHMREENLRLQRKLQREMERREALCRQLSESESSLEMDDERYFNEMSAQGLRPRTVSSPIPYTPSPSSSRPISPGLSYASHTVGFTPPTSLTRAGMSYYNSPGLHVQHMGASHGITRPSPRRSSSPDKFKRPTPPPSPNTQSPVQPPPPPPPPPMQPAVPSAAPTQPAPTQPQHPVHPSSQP
# Proto-oncogene tyrosine-protein kinase receptor Ret/Coiled-coil domain-containing protein 6 (Mus musculus), sequence (P35546 whole entry, looked up, the tested form may be a part): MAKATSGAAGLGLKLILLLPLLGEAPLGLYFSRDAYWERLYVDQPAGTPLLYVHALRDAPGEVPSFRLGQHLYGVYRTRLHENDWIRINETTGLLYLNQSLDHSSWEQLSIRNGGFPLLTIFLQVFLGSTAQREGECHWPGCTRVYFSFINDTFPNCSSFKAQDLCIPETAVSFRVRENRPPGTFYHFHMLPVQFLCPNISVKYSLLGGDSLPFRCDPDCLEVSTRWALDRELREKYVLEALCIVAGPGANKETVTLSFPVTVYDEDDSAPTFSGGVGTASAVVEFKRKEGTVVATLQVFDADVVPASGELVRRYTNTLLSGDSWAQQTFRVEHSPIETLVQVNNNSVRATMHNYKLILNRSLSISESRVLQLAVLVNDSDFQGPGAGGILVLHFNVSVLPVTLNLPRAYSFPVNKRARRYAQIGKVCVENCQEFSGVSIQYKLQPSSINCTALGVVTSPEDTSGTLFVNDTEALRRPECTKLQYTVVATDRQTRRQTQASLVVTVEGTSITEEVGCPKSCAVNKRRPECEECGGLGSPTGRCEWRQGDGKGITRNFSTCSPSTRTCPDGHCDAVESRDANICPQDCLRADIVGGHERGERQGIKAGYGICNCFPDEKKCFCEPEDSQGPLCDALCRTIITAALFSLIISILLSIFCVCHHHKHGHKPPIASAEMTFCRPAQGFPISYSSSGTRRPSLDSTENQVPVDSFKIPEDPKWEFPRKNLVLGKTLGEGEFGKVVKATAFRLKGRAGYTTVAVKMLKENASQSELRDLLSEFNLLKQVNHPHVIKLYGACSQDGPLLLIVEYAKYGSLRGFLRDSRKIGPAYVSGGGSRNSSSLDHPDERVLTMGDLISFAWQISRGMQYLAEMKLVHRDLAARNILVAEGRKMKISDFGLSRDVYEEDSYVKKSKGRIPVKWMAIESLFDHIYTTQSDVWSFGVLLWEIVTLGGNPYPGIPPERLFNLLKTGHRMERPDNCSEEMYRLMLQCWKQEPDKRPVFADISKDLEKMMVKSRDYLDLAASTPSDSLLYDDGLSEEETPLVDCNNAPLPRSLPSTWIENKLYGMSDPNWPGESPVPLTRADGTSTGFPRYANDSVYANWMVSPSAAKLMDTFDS
smiles,measurement,setting,value
COc1cc2nccc(Oc3ccc(Nc4nn(C)cc4C(=O)NC45CC6CC(CC(C6)C4)C5)c(F)c3)c2cc1C(N)=O,Activity,[1],2.39%
same,inhibition,[2],Active
same,inhibition,[3],Active
same,IC50,[4],54.2 nM
same,inhibition,[5],Active
same,Activity,[6],1.8%
same,Activity,[7],Dose-Dependent Effect
same,viability at 0.1 µM,[8],80.2%
same,inhibition,[9],Dose-Dependent Effect
same,IC50,[10],5.6 nM
same,Activity,[11],3.08%
same,Activity,[12],3.21%
same,Activity,[13],2.25%
same,Activity,[14],17.19%
same,Activity,[15],32.67%
same,Activity,[16],0.23%
